Measured values taken from PubChem BioAssay (NCI).
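Compound exposure: 48 hours, 5 concentrations, 96-well plates. GI50: concentration for 50% inhibition of growth. TGI denotes the concentration required for complete inhibition of growth.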

Legend:
Test in all cases: inhibition of tumour cell growth, NCI panel, 48 h
[1] = tested on: HT29 colon
[2] = tested on: ACHN renal
[3] = tested on: MALME-3M melanoma
[4] = tested on: COLO 205 colon
[5] = tested on: HL-60(TB) leukemia
[6] = tested on: OVCAR-8 ovarian
[7] = tested on: MOLT-4 leukemia
[8] = tested on: SK-MEL-28 melanoma
[9] = tested on: HCT-116 colon
[10] = tested on: DU-145 prostate

Compound	TGI [1] [µM]	TGI [2] [µM]	TGI [3] [µM]	TGI [4] [µM]	TGI [5] [µM]	TGI [6] [µM]	TGI [7] [µM]	TGI [8] [µM]	TGI [9] [µM]	GI50 [1] [µM]	GI50 [2] [µM]	GI50 [10] [µM]	TGI [10] [µM]	GI50 [3] [µM]	GI50 [4] [µM]	GI50 [6] [µM]	GI50 [8] [µM]	GI50 [9] [µM]	GI50 [7] [µM]
O=C1C=C(Nc2ccc(Cl)cc2C(=O)c2ccccc2)c2ccccc2C1=O	> 100	> 100	> 100	> 100	> 100	> 100	> 100	> 100	> 100										
CC(=O)N/C(=C\c1ccccc1/C=C(\NC(C)=O)c1nc2cc(C)c(C)cc2[nH]1)c1nc2cc(C)c(C)cc2[nH]1	> 100	28.4	54.2	> 100		40.9	97.4	48.8	88.2										
COCOCCC#CCO	> 100	> 100	> 100		> 100	> 100	> 100	> 100	> 100										
N#CC(I)CS(=O)(=O)c1ccccc1 (centres undefined)	4.51	3.35	4.27	3.86		32.2		30.7	3.11	2	1.87	17.2	31.3	2.13	2.03	17.4	16.6	1.66	
CN(C)CCNC(=O)Cc1ccccc1Nc1c(Cl)cccc1Cl	23.5	33.3		30.6	36.1	37.1	36.7	33.7	31.2										
C[N+](C)(C)CC(=O)N/N=C(/Cc1cc(=O)oc2cc(O)ccc12)C(=O)Nc1ccc(Cl)cc1	> 100	> 100	> 100	> 100	> 100	> 100	> 100	> 100	> 100										
CC1=C(C(=O)Nc2ccccc2)C(c2ccc(Cl)c(Cl)c2)C(C(=O)Nc2ccccc2)=C(C)N1	24.6	24.9	26.7	29.4		27.9	3.04	25.7	22.3										
CCC(C)(C)n1c(C)nc2c1C(=O)c1ccccc1C2=O	> 100	> 100	86.7	46.2	47.9	> 100	> 100	> 100	35.8										
CCCCCCCC(=O)OCC1OC(n2cc(F)c(=O)[nH]c2=O)C(N)C(OC(=O)CCCCCCC)C1O (centres undefined)	33.4	37.9	36.9	34	42.3	31.6	33.6	34.1	34.6										
Cc1nc2sccn2c1-c1nc2sccn2c1/C=C1/C(=O)Nc2ccccc21	10.7	> 100	70.5	10.5		> 100		46.2	30	2.96	7.72	4.64	21.5	3.26	2.63	11.4	5.42	3.3	
CN1Nc2ccccc2CC1=O	> 100	> 100	> 100	> 100		> 100		> 100	> 100										
CCCN(CCC)c1c([N+](=O)[O-])cc(C(=O)N(CC)CC)cc1[N+](=O)[O-]	> 100	> 100	40.5	32.7	50.8	69	50	64.6	27.2										
Oc1oc(C(=C2N=c3ccccc3=N2)c2ccc(Cl)cc2)c(O)c1-c1ccc(Cl)cc1	10.7	14.7	7.72	3.01	5.02	> 100	7.53	33.7	9.14										
CCOC(=O)Cc1csc(Nc2ccccc2[N+](=O)[O-])n1	> 100	> 100	> 100	> 100	> 100	> 100	> 100	> 100	> 100										
C/C(=N\NC(N)=O)c1sc(-c2nc(C)c(/C(C)=N/NC(N)=O)s2)nc1C	> 100	> 100	> 100	> 100	> 100	> 100	> 100	> 100											
O=C1C/C(Br)=C\c2ccccc2-c2ccccc21	4.72	4.5	4.94	12.4	5.7	5.41	7.81	2.8	3.71										
O=C1c2cccc3cccc(c23)C(=O)N1CCN(CCO)CCO	76.1	67.5	46.3	30.2	> 100	35	80.8	> 100	46.6										
FC(F)(F)c1ccc2nc(NCc3ccccc3)c(-c3ccccc3)nc2c1	> 100	> 100	> 100	> 100	48.9	> 100	72.5	> 100	> 100										
C=C(C)[C@@H]1CC[C@]2(CN)CC[C@]3(C)[C@H](CC[C@@H]4[C@@]5(C)CCCNC(C)(C)[C@@H]5CC[C@]43C)[C@@H]12		3.19	3.63	2.91			4.47	3.38	2.96		1.77	1.59	2.97	1.75	1.4		1.74	1.42	1.93
O/N=C1\CCCCC1C(NO)c1ccccc1 (centres undefined)	> 100	> 100	> 100	> 100	> 100	> 100	> 100	> 100	> 100										
O=C1C=C(c2c(O)ccc3ccccc23)c2cc(O)ccc2C1=O	47.9	31.5	34.2	40		28.9	8.67	36	30.1										
CCCCCCCCCCCC[N+]12CC[N+](CCN)(CC1)CC2	> 100	> 100	> 100	> 100	> 100	> 100	> 100	> 100	> 100										
